molecular target: T1, Renin (Homo sapiens, UniProt P00797); assay: Inhibition of human renin
T1 sequence (P00797 whole entry): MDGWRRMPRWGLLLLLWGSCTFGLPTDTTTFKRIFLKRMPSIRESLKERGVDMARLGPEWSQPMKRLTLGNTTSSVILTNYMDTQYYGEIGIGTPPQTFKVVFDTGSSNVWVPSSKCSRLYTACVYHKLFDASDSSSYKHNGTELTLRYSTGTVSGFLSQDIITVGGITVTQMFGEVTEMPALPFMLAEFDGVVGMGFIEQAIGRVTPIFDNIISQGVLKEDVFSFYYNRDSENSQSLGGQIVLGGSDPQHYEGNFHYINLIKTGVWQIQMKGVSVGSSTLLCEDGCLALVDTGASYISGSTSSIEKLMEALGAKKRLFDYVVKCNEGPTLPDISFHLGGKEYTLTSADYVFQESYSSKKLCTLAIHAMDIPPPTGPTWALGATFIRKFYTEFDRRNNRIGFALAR

| SMILES | IC50 [nM] |
| --- | --- |
| CCCc1nc(-c2cccnc2)cn2c(C(Cc3cccnc3)C(=O)NC(CC3CCCCC3)C(O)CC(C(=O)NCc3ccccn3)C(C)C)nnc12 (centres undefined) | 0.6 |
| CCCCNC(=O)C(CC(O)C(CC1CCCCC1)NC(=O)Cc1nnc2c(CC(C)C)nc(-c3ccccc3)cn12)C(C)C (centres undefined) | 30 |
| CCCc1nc(-c2cccnc2)cn2c(C(Cc3cccnc3)C(=O)NC(CC3CCCCC3)C(O)CC(C(=O)NCCN3CCNCC3)C(C)C)nnc12 (centres undefined) | 0.6 |
| CCCCN(C)C(=O)C(CC(O)C(CC1CCCCC1)NC(=O)C(Cc1cccnc1)c1nnc2c(CCC)nc(-c3cccnc3)cn12)C(C)C (centres undefined) | 41 |
| CCCc1nc(-c2cccnc2)cn2c(C(Cc3cccnc3)C(=O)NC(CC3CCCCC3)C(O)CC(C(=O)NCCN(C)C)C(C)C)nnc12 (stereo in doubt; e) | 0.3 |
| CCCc1nc(-c2cccnc2)cn2c(C(Cc3cccnc3)C(=O)NC(CC3CCCCC3)C(O)CC(C(=O)NCCCCO)C(C)C)nnc12 (centres undefined) | 0.3 |
| CCCc1nc(-c2cccnc2)cn2c(C(Cc3cccnc3)C(=O)NC(CC3CCCCC3)C(O)CC(C(=O)NCCN(C)C)C(C)C)nnc12 (single isomer, unassigned; less polar) | 8.6 |
| CCCCNC(=O)C(CC(O)C(CC1CCCCC1)NC(=O)C(Cc1cccnc1)c1nnc2c(CCC)nc(-c3cccnc3)cn12)C(C)C (centres undefined) | 0.2 |
| CCCc1nc(-c2cccnc2)cn2c(C(Cc3cccnc3)C(=O)NC(CC3CCCCC3)C(O)CC(C(=O)N(C)CCN(C)C)C(C)C)nnc12 (centres undefined) | 212 |
| CCCCNC(=O)[C@@H](CC(O)C(CC1CCCCC1)NC(=O)Cc1nnc2c(CCC)nc(-c3cccnc3)cn12)C(C)C (some centres undefined) | 26 |
| CCCc1nc(-c2cccnc2)cn2c(C(Cc3cccnc3)C(=O)NC(CC3CCCCC3)C(O)CC(C(=O)NCCN3CCOCC3)C(C)C)nnc12 (centres undefined) | 0.4 |
| CCCCNC(=O)C(CC(O)C(CC1CCCCC1)NC(=O)Cc1nnc2c(CCC)nc(-c3cccnc3)cn12)C(C)C (centres undefined) | 2.7 |
| CCCc1nc(-c2cccnc2)cn2c(C(Cc3cccnc3)C(=O)NC(CC3CCCCC3)C(O)CC(C(=O)N3CCOCC3)C(C)C)nnc12 (centres undefined) | 64 |
| CCCc1nc(-c2cccnc2)cn2c(C(Cc3cccnc3)C(=O)NC(CC3CCCCC3)C(O)CC(C(=O)NCCN)C(C)C)nnc12 (centres undefined) | 78 |

From ChEMBL document CHEMBL1124893, “1,2,4-Triazolo[4,3-a]pyrazine derivatives with human renin inhibitory activity. 2. Synthesis, biological properties and molecular modeling of hydroxyethylene isostere derivatives” (J Med Chem, 1990)
